These are literature values, as cited in patent US3955959A, “Herbicide for use in transplanted rice” (priority 1974, dated 1976).

The structures appear in SMILES notation.

In one data set the test system is rice. Particulars: prior art; cited from earlier work.
The next data set deals with weeds in rice fields. Particulars: prior art; cited from earlier work.

`CC(C)Oc1cc(-n2nc(C(C)(C)C)oc2=O)c(Cl)cc1Cl` [2-tert-butyl-4-(2,4-dichloro-5-isopropyloxyphenyl)-5-oxo-1,3,4-oxadiazoline]: the crop safety result in the data set on rice is given as “marginal crop safety”.
Consider `CCSC(=O)N1CCCCCC1` [S-ethyl hexahydro-1H-azepine-1-carbothioate], for which the “spectrum of weed control” value in the data set with weeds in rice fields is “narrow spectrum of weed control”.
